Experimental data taken from US20230002344A1, “NOVEL BENZOTHIOPHENE DERIVATIVES AND USE THEREOF FOR STIMULATING MITOCHONDRIAL TURNOVER” (NIBN, The National Institute For Biotechnology In The Negev …, priority 2019, published 2023).

Key:
Mitochondrial complex I = test: Complex I activity assay; type: biochemical; details: mitochondria from INS1 cells treated with 25 uM
Experimental: Complex I Activity assay. Mitochondrial complex I enzyme activity was measured using Abcam's complex I enzyme activity microplate assay Kit (ab109721) by following the oxidation of reduced nicotinamide adenine dinucleotide (NADH) to oxidized NAD+ and the simultaneous reduction of a dye which leads to increased absorbance at OD=450 nm.

INS1 cells [1] = test: Western blot for mitochondrial proteins; type: cell-based; details: 24 h
Experimental: INS1 cells expressing Mitotimer under EF-1 alpha promoter were treated for 18 hours with rapamycin (100 nM). […] FIGS. 2B and 2C show a Western blot for mitochondrial proteins upon treatment with rapamycin. Note that rapamycin increased mitochondrial mass.
(§1) Cell treatments and mitochondrial extraction. INS1 cells were treated with SBP08007 or MWP00839 25 uM for 24 h. Mitochondrial and cytosolic fractions from INS1 cells were performed by using the Mitochondria Isolation Kit for Cultured Cells (Pierce). INS1 cells were lysed in a hypotonic buffer (10 mM NaCl, 1.5 mM MgCl2, and 10 mM Tris.HCl, pH 7.5), and mitochondria were extracted in a Dounce homogenizer in mitochondrial buffer (1 mM EDTA, 210 mM mannitol, 70 mM sucrose, and 5 mM Tris.HCl, 7.5), followed by centrifugation at 1,300×g for 10 min at 4° C. The supernatant was further centrifuged at 17,000×g for 15 min at 4° C. to pellet the mitochondria. The crude mitochondrial fraction was resuspended for washing and centrifuged at 17,000×g for 15 min at 4° C. The pellets were collected as the mitochondrial fraction.
Western blot. Cell lysates were diluted in Laemmli sample buffer (100 mM Tris-HCl, 2% SDS, 10% glycerol, 0.1% bromophenol blue) containing 5% beta-mercaptoethanol. After heating at 95° C. for 5 min, proteins were separated by SDS-PAGE previously added of Stain Free reagent (BioRad), and transferred onto PVDF membranes. Membranes were blocked with 5% non-fat milk and detection of individual proteins was carried out by blotting with specific primary antibodies against ubiquitin (Calbiochem 1:1,000). Chemiluminescence detection using a secondary peroxidase-linked anti-rabbit (Calbiochem; 1:10,000) and a detection system from Pierce KLP (Rockford, Ill., USA) was performed. Stain free total protein labeling was imaged in Image Lab 6.0 Software (BioRad), which was used for quantification of the mitochondria and normalization to total protein staining.

INS1 cells [2] = test: Mitotracker Green pulse-chase (mitochondrial clearance); type: cell-based; details: 25 uM, 18 h after MTG pulse
Experimental: FIGS. 8A-E show the effect of two hit compounds on mitophagy confirmed by other methods. […] Cells were imaged using a 63× Plan Neofluar objective and the Airyscan module of a Zeiss LSM880 confocal microscope. […] Data are normalized by DMSO. […] After 18 h, cells were imaged. As control, cells were loaded with MTG 30 min prior imaging—time “0” (100% MTG staining). Cells were imaged using a 40× lens of a Perkin Elmer Operetta high-content imaging system microscope (FIG. 8D). […] Each experiment was repeated three times. For mCherry-GFP-FIS1101-152 assay, 59-85 cells of each group were analyzed in each experiment and for MTG pulse-chase assay, 45 fields were analyzed in each experiment. Values of *p<0.05 vs. DMSO, #p<0.05 vs. “time 0”.
Mitotracker Green Fluorescence, Anion Radical Superoxide and Mitochondrial Membrane Potential. […] Results are expressed as the percentage of MTG fluorescence relative to MTG fluorescence of the “time 0” control. […] Integrated fluorescence of each field was analyzed in Image J after background subtraction and threshold (IsoData) application. Twenty-four fields of each condition were analyzed in each experiment.
A second fluorescence technique, Mitotracker Green (MTG) “pulse-and-chase” (FIG. 8 C-E), was utilized to confirm faster mitochondrial clearance upon treatment with SPB08007 and MWP00839. […]

INS1 cells [3] = test: Ubiquitinated mitochondrial proteins (anti-ubiquitin blot); type: cell-based; details: 25 uM, 24 h
Experimental: INS1 cells were treated with SPB08007 (25 uM) or DMSO (0.1%) for 24 h. FIG. 17A: total mitochondrial protein isolated from 4×10^7 cells were loaded into SDS-PAGE gel previously added of Stain Free reagent, which was used to detect total protein bands in the BioRad Bio Lab gel reader. Protein was transferred into PVDF membrane, blotted to anti-ubiquitin. FIG. 17B: Quantification of total ubiquitin relative to total mitochondrial proteins. The quantification is expressed relative to DMSO, control. *p=0.001.
as §1, with “The crude mitochondrial fraction was resuspended for washing and centrifuged at 17,000×g for 15 min at 4° C. The pellets were collected as the mitochondrial fraction.” left out
Western blot. […] Stain free total protein labeling was imaged in Image Lab 6.0 Software (BioRad), which was used for quantification of the mitochondria and normalization to total protein staining.

## CC(=O)N/C(=C\c1sc2ccccc2c1C)C(=O)O [SPB08007]
Mitochondrial complex I
  mitochondrial Complex I activity: two-and-a-half-fold increase
INS1 cells [1]; 25 uM
  CI-NDFUB8 levels: unaffected
INS1 cells [1]; 25 uM, relative to DMSO
  SDHB (Complex II) protein level increase: 2 fold
  UQCRC2 (Complex III) protein level increase: 1.5 fold
INS1 cells [1]
  overall mitochondrial protein: reduces
INS1 cells [2]
  MTG intensity after pulse-chase: lower MTG intensity compared to DMSO
INS1 cells [3]
  ubiquitination of mitochondrial proteins: less ubiquitinated
